This passage reports inhibition results from US8541573B2, “Substituted sulfonamide compounds” (Gruenenthal GmbH, priority 2008, dated 2013).

For orientation: inhibition means the change of the read-out against control, counted positive when it falls.

For test [1], the target named is T1, human B1R (Homo sapiens, UniProt P46663).
T1 construct: expressed in transfected cells; host or cells: CHO K1 cells
T1 sequence (P46663 1-353): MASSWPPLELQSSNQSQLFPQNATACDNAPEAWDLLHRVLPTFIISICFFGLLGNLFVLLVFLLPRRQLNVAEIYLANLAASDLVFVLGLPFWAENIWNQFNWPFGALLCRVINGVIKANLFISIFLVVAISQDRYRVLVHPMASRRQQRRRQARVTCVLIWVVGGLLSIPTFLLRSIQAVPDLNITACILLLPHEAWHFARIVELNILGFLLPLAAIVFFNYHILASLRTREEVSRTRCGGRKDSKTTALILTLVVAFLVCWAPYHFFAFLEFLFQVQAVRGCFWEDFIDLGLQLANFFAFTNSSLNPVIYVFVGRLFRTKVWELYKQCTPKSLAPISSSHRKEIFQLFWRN
In words: Functional investigation on the bradykinin 1 receptor (B1R), cell-based fluorescent calcium-mobilization assay (FLIPR/Novostar), human. The settings on record: 10 μM test substance; CHO K1 cells stably transfected with human B1R gene; agonist Lys-Des-Arg9-bradykinin at EC80; % inhibition compared with maximum achievable inhibition; read-out: B1R antagonism, human [10 μM] % inhibition. Here is the method: (§1) The agonistic or antagonistic action of substances can be quantified on the bradykinin 1 receptor (B1R) of the human and rat species with ectopically expressing cell lines (CHO K1 cells) and with the aid of a Ca^2+-sensitive dyestuff (Fluo-4) in a fluorescent imaging plate reader (FLIPR). The figure in % activation is based on the Ca^2+ signal after addition of Lys-Des-Arg^9-bradykinin (0.5 nM) or Des-Arg^9-bradykinin (100 nM). Antagonists lead to a suppression of the Ca^2+ inflow after addition of the agonist. % inhibition compared with the maximum achievable inhibition is stated.
(§2) The agonistic or antagonistic action of substances can be determined on the bradykinin 1 receptor (B1R) of humans and rats by means of a cell-based flourescent calcium-mobilization assay. According to this assay agonist-induced increase of intracellular free Ca^2+ is quantified by means of a Ca^2+-sensitive dye (Fluo-4 type, Molecular Probes Europe BV, Leiden, Netherlands), in a Fluorescent Imaging Plate Reader (FLIPR, Molecular Devices, Sunnyvale, USA) and/or the Novostar (BMG Labtech GmbH, Offenburg, Germany).
(§3) Chinese hamster ovary cells (CHO K1 cells), which are stably transfected with the human B1R gene (hB1R cells) or with the B1R gene of rats (rB1R cells), are used. For functional investigations these cells are seeded into black 96-well plates with a clear bottom (BD Biosciences, Heidelberg, Germany or Greiner, Frickenhausen, Germany) in a density of 20,000-35,000 cells/well. The cells are incubated overnight in a humidified atmosphere at 37° C. and 5% CO2 in culture medium (hB1R cells: Nutrient Mixture Ham's F12, Gibco Invitrogen GmbH, Karlsruhe, Germany or DMEM, Sigma-Aldrich, Taufkirchen, Germany; rB1R cells: D-MEM/F12, Gibco Invitrogen GmbH, Karlsruhe, Germany) with 10 vol. % FBS (foetal bovine serum, Gibco Invitrogen GmbH, Karlsruhe, Germany).
(§4) On the following day the cells are loaded with the Ca^2+-sensitive dye Fluo-4-AM (Molecular Probes Europe BV, Leiden, Netherlands):
(§5) Method A: The medium of the cells is removed and cell plates are incubated with loading solution, which contains 2.13 μM Fluo-4-AM, 2.5 mM probenecid (Sigma-Aldrich, Taufkirchen, Germany), and 10 mM HEPES (Sigma-Aldrich, Taufkirchen, Germany) in HBSS buffer (Hank's buffered saline solution, Gibco Invitrogen GmbH, Karlsruhe, Germany) for 60 minutes at 37° C. After the plates are washed twice with HBSS buffer, HBSS buffer supplemented 0.1% BSA (bovine serum albumin; Sigma-Aldrich, Taufkirchen, Germany), 5.6 mM glucose and 0.05% gelatine (Merck KGaA, Darmstadt, Germany) is added. Cell plates are incubated for at least 20 minutes in the dark at room temperature before they are used for the Ca^2+ measurement in the FLIPR or Novostar.
(§6) Method B: The plates are washed with buffer A (15 mM HEPES, 80 mM NaCl, 5 mM KCl, 1.2 mM CaCl2, 0.7 mM MgSO4, 2 mg/ml glucose, 2.5 mM probenecid) and subsequently loaded with buffer A containing 2.4 μM Fluo-4-AM and 0.025% pluronic F127 (Sigma-Aldrich, Taufkirchen, Germany) for 60 minutes at 37° C. Cell plates are washed twice with buffer A. Then, buffer A supplemented with 0.05% BSA and 0.05% gelatine is added and cell plates are incubated in the dark at room temperature for at least 20 minutes before measurement in the FLIPR or Novostar is started.
(§7) The Ca^2+-dependent fluorescence is measured both before and after the addition of substances (λex=488 nm, λem=540 nm). For quantification of the effect the highest fluorescence intensity (FC, fluorescence counts) over time is given. The FLIPR protocol consists of two substance additions, done within the instrument while continuously monitoring the Ca^2+-dependent fluorescence at 540 nm. When the Novostar was used, one addition had to be done outside the instrument. Test substances (10 μM) are initially pipetted onto the cells and the intracellular Ca^2+ rise is compared with the control (hB1R: Lys-Des-Arg9-bradykinin>=50 nM; rB1R: Des-Arg9-bradykinin>=1 μM). […]

The target of test [2] is T2, B1R of rats (Rattus norvegicus, UniProt P97583).
T2 construct: expressed in transfected cells; host or cells: CHO K1 cells
T2 sequence (P97583 1-337): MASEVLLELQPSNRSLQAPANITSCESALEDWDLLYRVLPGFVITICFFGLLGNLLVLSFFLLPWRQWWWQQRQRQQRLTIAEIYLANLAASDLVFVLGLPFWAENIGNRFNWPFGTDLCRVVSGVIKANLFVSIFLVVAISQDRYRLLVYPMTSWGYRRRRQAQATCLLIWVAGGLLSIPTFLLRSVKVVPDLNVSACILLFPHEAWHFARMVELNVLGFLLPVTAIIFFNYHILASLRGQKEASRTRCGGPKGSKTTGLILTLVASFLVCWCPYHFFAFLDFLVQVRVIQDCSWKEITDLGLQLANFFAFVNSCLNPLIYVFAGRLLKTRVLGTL
Put plainly: Functional investigation on the bradykinin 1 receptor (B1R), cell-based fluorescent calcium-mobilization assay (FLIPR/Novostar), rat. The conditions noted are these: 10 μM test substance; CHO K1 cells stably transfected with rat B1R gene; agonist Des-Arg9-bradykinin at EC80; % inhibition compared with maximum achievable inhibition; read-out: B1R antagonism, rat [10 μM] % inhibition. Here is the method:
as §1, §2, §3, §4, §5, §6, §7

Turning to `Cc1cc(S(=O)(=O)N2CCCCC2CCC(=O)N2CCC(CNC(=O)c3cccnc3)(N3CCN(C)CC3)CC2)c(C)cc1Cl` (stereo not shown) [Example 33, N-((1-(3-(1-(4-chloro-2,5-dimethylphenylsulfonyl)piperidin-2-yl)propanoyl)-4-(4-methylpiperazin-1-yl)piperidin-4-yl)methyl)nicotinamide], the inhibition at 10 µM in test [1] was found to be 103%; in test [2] it was 100%.
In the case of `COc1cc(C)c(S(=O)(=O)N2CCCCC2COCC(=O)N2CCC(CNC(=O)c3cccnc3)(N3CCN(C)CC3)CC2)c(C)c1` (stereo not shown) [Example 34, N-((1-(2-((1-(4-methoxy-2,6-dimethylphenylsulfonyl)piperidin-2-yl)methoxy)acetyl)-4-(4-methylpiperazin-1-yl)piperidin-4-yl)methyl)nicotinamide], the inhibition at 10 µM was 104% in test [1] and 102% in test [2].
For `CC(=O)NCC1(N2CCN(c3ccncc3)CC2)CCN(C(=O)CC(NS(=O)(=O)c2ccc3ccccc3c2)c2ccccc2)CC1` (stereo not shown) [Example 14, N-((1-(3-(naphthalene-2-sulfonamido)-3-phenylpropanoyl)-4-(4-(pyridin-4-yl)piperazin-1-yl)piperidin-4-yl)methyl)acetamide], in that order: 100% and 82%.
Regarding `CC(=O)NCC1(N2CCN(C)CC2)CCN(C(=O)CC2CCCCN2S(=O)(=O)c2cccc(C(F)(F)F)c2)CC1` (stereo not shown) [Example 12, N-((4-(4-methylpiperazin-1-yl)-1-(2-(1-(3-(trifluoromethyl)phenylsulfonyl)-piperidin-2-yl)acetyl)piperidin-4-yl)methyl)acetamide], the inhibition at 10 µM in test [1] came out at 80%; in test [2], 13%.
For `COc1cc(C)c(S(=O)(=O)N(C)CCOCC(=O)N2CCC(CNC(=O)c3ccccn3)(N3CCN(C)CC3)CC2)c(C)c1` [Example 25, N-((1-(2-(2-(4-methoxy-N,2,6-trimethylphenylsulfonamido)ethoxy)acetyl)-4-(4-methylpiperazin-1-yl)piperidin-4-yl)methyl)picolinamide], the inhibition at 10 µM in test [1] worked out at 103%; in test [2] it was 101%.
For `COc1cc(C)c(S(=O)(=O)N(CCOCC(=O)N2CCC(CNC(C)=O)(N3CCN(c4ccncc4)CC3)CC2)C2CC2)c(C)c1` [Example 46, N-((1-(2-(2-(N-Cyclopropyl-4-methoxy-2,6-dimethylphenylsulfonamido)ethoxy)acetyl)-4-(4-(pyridin-4-yl)piperazin-1-yl)piperidin-4-yl)methyl)acetamide], in that order: 100% and 101%.
For `CN1CCN(C2(CNC(=O)c3ccncc3)CCN(C(=O)COCC3CCc4ccccc4N3S(=O)(=O)c3ccc(Cl)c(Cl)c3)CC2)CC1` (stereo not shown) [Example 30, N-((1-(2-((1-(3,4-dichlorophenylsulfonyl)-1,2,3,4-tetrahydroquinolin-2-yl)methoxy)acetyl)-4-(4-methylpiperazin-1-yl)piperidin-4-yl)methyl)-isonicotinamide], in that order: 100% and 80%.
`O=C(NCC1(N2CCN(C3CC3)CC2)CCN(C(=O)COCCN(C2CC2)S(=O)(=O)c2ccccc2C(F)(F)F)CC1)c1ccncc1` [Example 47, N-((1-(2-(2-(N-Cyclopropyl-2-(trifluoromethyl)phenylsulfonamido)ethoxy)acetyl)-4-(4-cyclopropylpiperazin-1-yl)piperidin-4-yl)methyl)isonicotinamide]: the values for the inhibition at 10 µM in test [1] and in test [2] were 100% and 99%, respectively.
With `CC(=O)NCC1(N2CCN(C)CC2)CCN(C(=O)CC(NS(=O)(=O)c2ccc3ccccc3c2)c2ccccc2)CC1` (stereo not shown) [Example 35, N-((4-(4-methylpiperazin-1-yl)-1-(3-(naphthalene-2-sulfonamido)-3-phenylpropanoyl)piperidin-4-yl)methyl)acetamide], the inhibition at 10 µM in test [1] was found to be 89%; in test [2], 102%.
For `Cc1cc(S(=O)(=O)N2CCCCC2CCC(=O)N2CCC(CNC(=O)Cc3ccccc3)(N3CCN(C)CC3)CC2)c(C)cc1Cl` (stereo not shown) [Example 10, N-((1-(3-(1-(4-chloro-2,5-dimethylphenylsulfonyl)piperidin-2-yl)propanoyl)-4-(4-methylpiperazin-1-yl)piperidin-4-yl)methyl)-2-phenylacetamide], the inhibition at 10 µM in test [1] came to 101%; in test [2], 39%.
On to `CC(=O)NCC1(N2CCN(C)CC2)CCN(C(=O)CCC2CCCCN2S(=O)(=O)c2cc(C)c(Cl)cc2C)CC1` (stereo not shown) [Example 2, N-((1-(3-(1-(4-chloro-2,5-dimethylphenylsulfonyl)piperidin-2-yl)propanoyl)-4-(4-methylpiperazin-1-yl)piperidin-4-yl)methyl)acetamide], for which the values for the inhibition at 10 µM in test [1] and in test [2] were 81% and 74%, respectively.
As to `CN1CCN(C2(CNC(=O)Cc3ccccc3)CCN(C(=O)CC(NS(=O)(=O)c3ccc4ccccc4c3)c3ccccc3)CC2)CC1` (stereo not shown) [Example 8, N-((4-(4-methylpiperazin-1-yl)-1-(3-(naphthalene-2-sulfonamido)-3-phenylpropanoyl)piperidin-4-yl)methyl)-2-phenylacetamide], the inhibition at 10 µM is 75% in test [1] and 29% in test [2].
For `CN1CCN(C2(CNC(=O)c3ccccc3)CCN(C(=O)COCC3CCc4ccccc4N3S(=O)(=O)c3ccc(Cl)c(Cl)c3)CC2)CC1` (stereo not shown) [Example 23, N-((1-(2-((1-(3,4-dichlorophenylsulfonyl)-1,2,3,4-tetrahydroquinolin-2-yl)methoxy)acetyl)-4-(4-methylpiperazin-1-yl)piperidin-4-yl)methyl)benzamide], in that order: 99% and 54%.
As for `COc1cc(C)c(S(=O)(=O)N(C)CCOCC(=O)N2CCC(CNC(=O)Cc3ccccc3)(N3CCN(C)CC3)CC2)c(C)c1` [Example 15, N-((1-(2-(2-(4-methoxy-N,2,6-trimethylphenylsulfonamido)ethoxy)acetyl)-4-(4-methylpiperazin-1-yl)piperidin-4-yl)methyl)-2-phenylacetamide], the inhibition at 10 µM in test [1] turned out to be 103%; in test [2] it was 101%.
